Results on 16 molecules are retold here after US20260317299A1, “PIKFYVE PROTEIN KINASE DEGRADATION AGENT AND USE THEREOF” (Shanghai Institute of Organic Chemistry, Chinese Academy of …, priority 2023, published 2026).

In the experiment the target is T1, PIKfyve (Homo sapiens, UniProt Q9Y2I7).
T1 construct: endogenous in cells; host or cells: VCaP
T1 sequence (Q9Y2I7 whole entry): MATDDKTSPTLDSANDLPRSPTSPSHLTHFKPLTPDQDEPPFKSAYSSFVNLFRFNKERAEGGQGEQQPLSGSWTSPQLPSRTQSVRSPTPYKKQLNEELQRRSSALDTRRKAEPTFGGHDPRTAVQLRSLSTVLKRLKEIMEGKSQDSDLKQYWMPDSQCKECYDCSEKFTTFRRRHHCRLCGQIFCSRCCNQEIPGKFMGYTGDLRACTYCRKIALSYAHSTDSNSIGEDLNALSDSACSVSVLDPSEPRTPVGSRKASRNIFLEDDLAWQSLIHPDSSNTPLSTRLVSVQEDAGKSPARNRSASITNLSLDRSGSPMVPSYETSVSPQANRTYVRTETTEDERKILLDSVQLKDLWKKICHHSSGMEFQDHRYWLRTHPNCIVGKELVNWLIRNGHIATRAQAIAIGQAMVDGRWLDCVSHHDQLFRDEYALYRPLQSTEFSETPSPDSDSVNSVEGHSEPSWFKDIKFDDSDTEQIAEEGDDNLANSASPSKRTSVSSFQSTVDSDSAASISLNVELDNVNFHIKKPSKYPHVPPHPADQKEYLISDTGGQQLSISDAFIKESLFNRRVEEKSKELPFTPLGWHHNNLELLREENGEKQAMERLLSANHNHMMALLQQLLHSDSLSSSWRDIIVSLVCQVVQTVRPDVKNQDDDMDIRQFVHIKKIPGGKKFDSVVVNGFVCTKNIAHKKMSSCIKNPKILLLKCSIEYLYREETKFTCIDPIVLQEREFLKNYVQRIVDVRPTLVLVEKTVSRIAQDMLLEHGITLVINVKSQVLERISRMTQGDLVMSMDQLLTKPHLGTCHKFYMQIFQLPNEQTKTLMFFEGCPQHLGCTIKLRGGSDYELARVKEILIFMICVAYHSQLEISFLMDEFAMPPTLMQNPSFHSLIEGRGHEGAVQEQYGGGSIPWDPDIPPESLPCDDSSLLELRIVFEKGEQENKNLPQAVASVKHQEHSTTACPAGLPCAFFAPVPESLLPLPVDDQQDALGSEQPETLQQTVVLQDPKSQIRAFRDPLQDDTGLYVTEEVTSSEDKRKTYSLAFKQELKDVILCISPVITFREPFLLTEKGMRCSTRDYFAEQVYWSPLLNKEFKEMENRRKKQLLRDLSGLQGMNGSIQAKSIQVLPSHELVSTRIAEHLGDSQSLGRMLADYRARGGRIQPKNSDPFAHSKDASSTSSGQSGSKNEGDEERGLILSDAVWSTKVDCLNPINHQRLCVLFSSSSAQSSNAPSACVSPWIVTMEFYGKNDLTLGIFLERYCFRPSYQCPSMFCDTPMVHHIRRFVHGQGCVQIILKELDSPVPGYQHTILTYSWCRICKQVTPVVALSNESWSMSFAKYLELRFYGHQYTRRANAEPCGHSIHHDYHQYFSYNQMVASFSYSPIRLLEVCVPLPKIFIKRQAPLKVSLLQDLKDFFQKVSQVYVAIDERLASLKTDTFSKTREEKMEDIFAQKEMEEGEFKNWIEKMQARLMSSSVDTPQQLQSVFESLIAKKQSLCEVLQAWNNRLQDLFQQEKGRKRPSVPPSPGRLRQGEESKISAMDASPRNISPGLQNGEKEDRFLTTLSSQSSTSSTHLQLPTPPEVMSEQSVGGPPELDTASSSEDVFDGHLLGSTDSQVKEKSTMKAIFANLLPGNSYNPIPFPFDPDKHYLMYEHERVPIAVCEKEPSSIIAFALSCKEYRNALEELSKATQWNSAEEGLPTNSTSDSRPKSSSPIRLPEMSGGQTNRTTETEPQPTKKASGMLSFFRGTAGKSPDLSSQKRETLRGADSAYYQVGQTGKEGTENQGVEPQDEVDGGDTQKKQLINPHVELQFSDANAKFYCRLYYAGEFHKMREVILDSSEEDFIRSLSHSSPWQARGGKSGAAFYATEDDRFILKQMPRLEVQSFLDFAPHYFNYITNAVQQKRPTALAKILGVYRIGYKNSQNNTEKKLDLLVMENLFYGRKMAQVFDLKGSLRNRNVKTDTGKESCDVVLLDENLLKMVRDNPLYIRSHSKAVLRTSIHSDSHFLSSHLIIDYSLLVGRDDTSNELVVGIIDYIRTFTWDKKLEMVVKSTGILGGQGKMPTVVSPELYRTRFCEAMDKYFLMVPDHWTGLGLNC
Description: Degradation of PIKfyve proteins in VCaP tumor cells (24 h, Western blot). The experiment is classed as cell-based. The settings on record: 37° C., compared with DMSO control, WB, read-out: DC50 (concentration that achieves 50% degradation activity). As to the method:
Method: 200 μL of cells at a density of 5×10^6 cells/ml were inoculated into a 6-well plate, and then different concentrations of drugs were added. The cells were treated at 37° C. for 24 h. The […] was collected and washed with PBS twice. Then, 100-200 μL of 1×SDS lysate was added, and the cell lysate was collected into a centrifuge tube. The cells were disrupted ultrasonically for 10-20 sec, and boiled for 10 min. Protein samples were subjected to SDS-PAGE electrophoresis at a voltage of 90 V, transferred to PVDF membranes at 110 V, blocked with 5% BSA for 4 h, incubated with primary antibodies (PIKfyve, GAPDH) at 4° C. overnight, and incubated with secondary antibodies (anti-Rabbit IgG or anti-Mouse IgG) at room temperature. The membranes were washed with TBST buffer, developed with an ECL developing solution, and then imaged to obtain protein band signals, with single-concentration WB results as shown in FIG. 1. Compared with the DMSO control group, the concentration that achieves 50% degradation activity is defined as DC50.
Turning to `Cc1cccc(/C=N/Nc2cc(N3CCOCC3)nc(OCCc3ccc(NC(=O)CCCNc4ccc5c(c4)C(=O)N(C4CCC(=O)NC4=O)C5=O)cc3)n2)c1` (stereo not shown) [Example 16, (E)-4-((2-(2,6-dioxopiperidin-3-yl)-1,3-dioxoisoindolin-5-yl)amino)-N-(4-(2-((4-(2-(3-methylbenzylidene)hydrazino)-6-morpholinopyrimidin-2-yl)oxy)ethyl)phenyl) butanamide], the DC50 is 100 to 10000 nM.

For `Cc1cccc(-c2ccn(-c3cc(N4CCOCC4)nc(OC4CCN(c5ccc(NC(=O)NC6CCN(c7cc8c(cc7F)C(=O)N(C7CCC(=O)NC7=O)C8=O)CC6)cc5)CC4)n3)n2)c1` (stereo not shown) [Example 92, 1-(1-(2-(2,6-Dioxopiperidin-3-yl)-6-fluoro-1,3-dioxoisoindolin-5-yl)piperidin-4-yl)-3-(4-(4-((4-morpholino-6-(3-(m-tolyl)-1H-pyrazol-1-yl)pyrimidin-2-yl)oxy)piperidin-1-yl)phenyl)urea], the DC50 is 100 to 10000 nM.

Regarding `Cc1cccc(-c2ccn(-c3cc(N4CCOCC4)nc(OCCc4ccc(C#CC5CCN(C(=O)C[C@H](NC(=O)[C@@H]6C[C@@H](O)CN6C(=O)[C@@H](NC(=O)C6(F)CC6)C(C)(C)C)c6ccc(-c7scnc7C)cc6)CC5)cc4)n3)n2)c1` [Example 70, (2S,4R)-1-((S)-2-(1-fluorocyclopropane-1-carboxamido)-3,3-dimethylbutanoyl)-4-hydroxy-N—((S)-1-(4-(4-methylthiazol-5-yl)phenyl)-3-(4-((4-(2-((4-morpholino-6-(3-(m-tolyl)-1H-pyrazol-1-yl)pyrimidin-2-yl)oxy)ethyl)phenyl)ethynyl)piperidin-1-yl)-3-oxopropyl) pyrrolidine-2-carboxamide], the DC50 was in the range of 1 to 100 nM.

As for `Cc1cccc(/C=N/Nc2cc(N3CCOCC3)nc(OCCc3ccc(NC(=O)CCCCCCCCCNc4ccc5c(c4)C(=O)N(C4CCC(=O)NC4=O)C5=O)cc3)n2)c1` (stereo not shown) [Example 19, (E)-10-((2-(2,6-dioxopiperidin-3-yl)-1,3-dioxoisoindolin-5-yl)amino)-N-(4-(2-((4-(2-(3-methylbenzylidene)hydrazino)-6-morpholinopyrimidin-2-yl)oxy)ethyl)phenyl) decanamide], the DC50 fell in the range of 100 to 10000 nM.

In the case of `Cc1cccc(-c2ccn(-c3cc(N4CCOCC4)nc(OC4CCN(c5ccc(NC(=O)CC[C@H](NC(=O)[C@@H]6C[C@@H](O)CN6C(=O)[C@@H](NC(=O)C6(F)CC6)C(C)(C)C)c6ccc(-c7scnc7C)cc6)cc5)CC4)n3)n2)c1` [Example 68, (2S,4R)-1-((S)-2-(1-fluorocyclopropane-1-carboxamido)-3,3-dimethylbutanoyl)-4-hydroxy-N—((S)-1-(4-(4-methylthiazol-5-yl)phenyl)-4-((4-(4-((4-morpholino-6-(3-(m-tolyl)-1H-pyrazol-1-yl)pyrimidin-2-yl)oxy)piperidin-1-yl)phenyl)amino)-4-oxobutyl)pyrrolidine-2-carboxamide], the DC50 lay within 1 to 100 nM.

As for `Cc1cccc(-c2ccn(-c3cc(N4CCOCC4)nc(OCCc4ccc(N5CCN(C(=O)CCCC[C@H](NC(=O)[C@@H]6C[C@@H](O)CN6C(=O)[C@@H](NC(=O)C6(F)CC6)C(C)(C)C)c6ccc(-c7scnc7C)cc6)CC5)cc4)n3)n2)c1` [Example 77, (2S,4R)-1-((S)-2-(1-fluorocyclopropane-1-carboxamido)-3,3-dimethylbutanoyl)-4-hydroxy-N—((S)-1-(4-(4-methylthiazol-5-yl)phenyl)-6-(4-(4-(2-((4-morpholino-6-(3-(m-tolyl)-1H-pyrazol-1-yl)pyrimidin-2-yl)oxy)ethyl)phenyl)piperazin-1-yl)-6-oxohexyl)pyrrolidine-2-carboxamide], the DC50 lay in the range of 1 to 100 nM.

As to `Cc1cccc(-c2ccn(-c3cc(N4CCOCC4)nc(OC4CCN(c5ccc(N6CCN(c7cc8c(cc7F)C(=O)N(C7CCC(=O)NC7=O)C8=O)CC6)cc5)CC4)n3)n2)c1` (stereo not shown) [Example 89, 2-(2,6-Dioxopiperidin-3-yl)-5-fluoro-6-(4-(4-(4-((4-morpholino-6-(3-(m-tolyl)-1H-pyrazol-1-yl)pyrimidin-2-yl)oxy)piperidin-1-yl)phenyl)piperazin-1-yl)isoindoline-1,3-dione], the DC50 was 100 to 10000 nM.

For the molecule `Cc1cccc(/C=N/Nc2cc(N3CCOCC3)nc(OCCc3ccc(NC(=O)CCCCCCCCC(=O)Nc4cccc5c4C(=O)N(C4CCC(=O)NC4=O)C5)cc3)n2)c1` (stereo not shown) [Example 35, (E)-N^1-(2-(2,6-dioxopiperidin-3-yl)-3-oxoisoindolin-4-yl)-N^10-(4-(2-((4-(2-(3-methylbenzylidene)hydrazino)-6-morpholinopyrimidin-2-yl)oxy)ethyl)phenyl)decanediamide], the DC50 is 100 to 10000 nM.

For `Cc1cccc(-c2ccn(-c3cc(N4CCOCC4)nc(OC4CCN(c5ccc(NC(=O)NC6CCN(C(=O)C[C@H](NC(=O)[C@@H]7C[C@@H](O)CN7C(=O)[C@@H](NC(=O)C7(F)CC7)C(C)(C)C)c7ccc(-c8scnc8C)cc7)CC6)cc5)CC4)n3)n2)c1` [Example 82, (2S,4R)-1-((S)-2-(1-fluorocyclopropane-1-carboxamido)-3,3-dimethylbutanoyl)-4-hydroxy-N—((S)-1-(4-(4-methylthiazol-5-yl)phenyl)-3-(4-(3-(4-(4-((4-morpholino-6-(3-(m-tolyl)-1H-pyrazol-1-yl)pyrimidin-2-yl)oxy)piperidin-1-yl)phenyl)ureido)piperidin-1-yl)-3-oxopropyl)pyrrolidine-2-carboxamide], the DC50 is 1 to 100 nM.

For `Cc1cccc(/C=N/Nc2cc(N3CCOCC3)nc(OCCc3ccc(NC(=O)CCCCCCCCC(=O)N[C@H](C(=O)N4C[C@H](O)C[C@H]4C(=O)N[C@@H](C)c4ccc(-c5scnc5C)cc4)C(C)(C)C)cc3)n2)c1` [Example 48], the DC50 is 1 to 100 nM.

Take `Cc1cccc(/C=N/Nc2cc(N3CCOCC3)nc(OCCc3ccc(NC(=O)CNC(=O)COc4cc(-c5scnc5C)ccc4CNC(=O)[C@@H]4C[C@@H](O)CN4C(=O)[C@@H](NC(=O)C4(F)CC4)C(C)(C)C)cc3)n2)c1` [Example 54, (2S,4R)-1-((S)-2-(1-fluorocyclopropane-1-carboxamido)-3,3-dimethylbutanoyl)-4-hydroxy-N-(2-(2-((2-((4-(2-((4-(2-((E)-3-methylbenzylidene)hydrazino)-6-morpholinopyrimidin-2-yl)oxy)ethyl)phenyl)amino)-2-oxoethyl)amino)-2-oxoethoxy)-4-(4-methylthiazol-5-yl)benzyl)pyrrolidine-2-carboxamide]: the DC50 is 1 to 100 nM.

`Cc1cccc(-c2ccn(-c3cc(N4CCOCC4)nc(OCCc4ccc(NC(=O)NC5CCN(C(=O)C[C@H](NC(=O)[C@@H]6C[C@@H](O)CN6C(=O)[C@@H](NC(=O)C6(F)CC6)C(C)(C)C)c6ccc(-c7scnc7C)cc6)CC5)cc4)n3)n2)c1` [Example 78, (2S,4R)-1-((S)-2-(1-fluorocyclopropane-1-carboxamido)-3,3-dimethylbutanoyl)-4-hydroxy-N—((S)-1-(4-(4-methylthiazol-5-yl)phenyl)-3-(4-(3-(4-(2-((4-morpholino-6-(3-(m-tolyl)-1H-pyrazol-1-yl)pyrimidin-2-yl)oxy)ethyl)phenyl)ureido)piperidin-1-yl)-3-oxopropyl) pyrrolidine-2-carboxamide]: the DC50 lay within 1 to 100 nM.

Turning to `Cc1cccc(-c2ccn(-c3cc(N4CCOCC4)nc(OC4CCN(c5ccc(NC(=O)NC6CCN(C(=O)CC[C@H](NC(=O)[C@@H]7C[C@@H](O)CN7C(=O)[C@@H](NC(=O)C7(F)CC7)C(C)(C)C)c7ccc(-c8scnc8C)cc7)CC6)cc5)CC4)n3)n2)c1` [Example 83, (2S,4R)-1-((S)-2-(1-fluorocyclopropane-1-carboxamido)-3,3-dimethylbutanoyl)-4-hydroxy-N—((S)-1-(4-(4-methylthiazol-5-yl)phenyl)-4-(4-(3-(4-(4-((4-morpholino-6-(3-(m-tolyl)-1H-pyrazol-1-yl)pyrimidin-2-yl)oxy)piperidin-1-yl)phenyl)ureido)piperidin-1-yl)-4-oxobutyl)pyrrolidine-2-carboxamide], the DC50 is 1 to 100 nM.

Regarding `Cc1cccc(/C=N/Nc2cc(N3CCOCC3)nc(OCCc3ccc(NC(=O)CCCCC(=O)N[C@H](C(=O)N4C[C@H](O)C[C@H]4C(=O)N[C@@H](C)c4ccc(-c5scnc5C)cc4)C(C)(C)C)cc3)n2)c1` [Example 46], the DC50 lay within 1 to 100 nM.

As for `Cc1cccc(-c2ccn(-c3cc(N4CCOCC4)nc(OCCc4ccc(NC(=O)CCCCCNC(=O)COc5cc(-c6scnc6C)ccc5CNC(=O)[C@@H]5C[C@@H](O)CN5C(=O)[C@@H](NC(=O)C5(F)CC5)C(C)(C)C)cc4)n3)n2)c1` [Example 66, (2S,4R)-1-((S)-2-(1-fluorocyclopropane-1-carboxamido)-3,3-dimethylbutanoyl)-4-hydroxy-N-(4-(4-methylthiazol-5-yl)-2-(2-((6-((4-(2-((4-morpholino-6-(3-(m-tolyl)-1H-pyrazol-1-yl)pyrimidin-2-yl)oxy)ethyl)phenyl)amino)-6-oxohexyl)amino)-2-oxoethoxy)benzyl) pyrrolidine-2-carboxamide], the DC50 lay within 1 to 100 nM.

For `Cc1cccc(/C=N/Nc2cc(N3CCOCC3)nc(OCCc3ccc(NC(=O)CCCCCCC(=O)Nc4ccc5c(c4)C(=O)N(C4CCC(=O)NC4=O)C5)cc3)n2)c1` (stereo not shown) [Example 30, (E)-N^1-(2-(2,6-dioxopiperidin-3-yl)-3-oxoisoindol-5-yl)-N^8-(4-(2-((4-(2-(3-methylbenzylidene)hydrazino)-6-morpholinopyrimidin-2-yl)oxy)ethyl)phenyl)octanediamide], the DC50 lay in the range of 1 to 100 nM.
